Test results from patent US20240150334A1, “HSD17B13 INHIBITORS AND/OR DEGRADERS” (Pfizer Inc., priority 2022, published 2024).
Where a name gives a salt, the structure may show the parent alone.

Target: wild type human HSD17B13 (Homo sapiens (Human), UniProt Q7Z5P4)
Test: HEK_Beta-Est LCMS_IC50_Tekcel, whole-cell HEK-HSD17B13 inhibition assay, estrone production by LCMS
Assay type: cell-based
Settings: geometric mean, HEK cells stably expressing wild type human HSD17B13, 25 μM FAC beta-estradiol, read-out: HEK_Beta-Est LCMS_IC50—Tekcel GMean IC50
Outline: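 Readout was LCMS quantitation of estrone made from beta-estradiol with NAD+ as cofactor. Whole HEK-HSD17B13 cells were given compound for 1 hour, then the reaction for 2 hours, both at 37° C. Product area ratios were normalized to vehicle controls as zero percent effect.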

Sequence of wild type human HSD17B13 (Q7Z5P4 20-300): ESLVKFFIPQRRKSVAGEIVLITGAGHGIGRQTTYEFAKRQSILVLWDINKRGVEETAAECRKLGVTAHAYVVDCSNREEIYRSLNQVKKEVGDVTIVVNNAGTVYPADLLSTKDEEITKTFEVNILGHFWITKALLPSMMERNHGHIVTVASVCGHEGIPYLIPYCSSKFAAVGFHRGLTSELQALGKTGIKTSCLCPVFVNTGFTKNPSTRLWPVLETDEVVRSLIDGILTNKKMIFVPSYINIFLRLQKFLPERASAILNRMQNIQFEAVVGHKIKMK

| SMILES | IC50 |
| --- | --- |
| Cc1nnc(-c2ccc3cn([C@H]4CC[C@H](CNC(=O)c5cc(F)c(O)c(F)c5)CC4)nc3c2)s1 [Example 102, 3,5-difluoro-4-hydroxy-N-({(1r,4r)-4-[6-(5-methyl-1,3,4-thiadiazol-2-yl)-2H-indazol-2-yl]cyclohexyl}methyl) benzamide, ammonium salt] | 200 nM |
| Cc1cc(-c2ccc3cn([C@H]4CC[C@H](CNC(=O)c5cc(F)c(O)c(F)c5)CC4)nc3c2)ccn1 [Example 81, 3,5-difluoro-4-hydroxy-N-({(1r,4r)-4-[6-(2-methylpyridin-4-yl)-2H-indazol-2-yl]cyclohexyl}methyl) benzamide, trifluoroacetate salt] | 120 nM |
| O=C(NC[C@H]1CC[C@H](n2cc3ccc(-c4cnc5[nH]ccc5c4)cc3n2)CC1)c1cc(F)c(O)c(F)c1 [Example 112, 3,5-difluoro-4-hydroxy-N-({(1r,4r)-4-[6-(1H-pyrrolo[2,3-b]pyridin-5-yl)-2H-indazol-2-yl]cyclohexyl}methyl) benzamide, trifluoroacetate salt] | 220 nM |
| COc1cc(-c2ccc3cn([C@H]4CC[C@H](CNC(=O)c5cc(F)c(O)c(F)c5)CC4)nc3c2)ccn1 [Example 106, 3,5-difluoro-4-hydroxy-N-({(1r,4r)-4-[6-(2-methoxypyridin-4-yl)-2H-indazol-2-yl]cyclohexyl}methyl) benzamide, trifluoroacetate salt] | 150 nM |
| CC(C)(C)OC(=O)N[C@]12CC[C@](CNC(=O)c3cc(F)c(O)c(F)c3)(CC1)CC2 [Example 192, tert-butyl {4-[(3,5-difluoro-4-hydroxybenzamido)methyl]bicyclo[2.2.2]octan-1-yl}carbamate] | 480 nM |
| O=C(NC[C@H]1CC[C@H](n2cc3ccc(-c4ccn5nccc5c4)cc3n2)CC1)c1cc(F)c(O)c(F)c1 [Example 89, 3,5-difluoro-4-hydroxy-N-({(1r,4r)-4-[6-(pyrazolo[1,5-a]pyridin-5-yl)-2H-indazol-2-yl]cyclohexyl}methyl) benzamide, trifluoroacetate salt] | 130 nM |
| CC(C)c1ncc(-c2ccc3cn([C@H]4CC[C@H](CNC(=O)c5cc(F)c(O)c(F)c5)CC4)nc3c2)o1 [Example 121, 3,5-difluoro-4-hydroxy-N-{[(1r,4r)-4-{6-[2-(propan-2-yl)-1,3-oxazol-5-yl]-2H-indazol-2-yl}cyclohexyl]methyl} benzamide] | 150 nM |
| O=C(NC[C@H]1CC[C@H](c2nc(-c3cnc(C(F)(F)F)cn3)no2)CC1)c1cc(F)c(O)cc1F [Example 149, 2,5-difluoro-4-hydroxy-N-{[(1r,4r)-4-{3-[5-(trifluoromethyl)pyrazin-2-yl]-1,2,4-oxadiazol-5-yl}cyclohexyl]methyl} benzamide] | 430 nM |

Continued, values first:

| IC50 | SMILES |
| --- | --- |
| 350 nM | Cn1cc(-c2ccc3nc([C@H]4CC[C@H](CNC(=O)c5cc(F)c(O)c(F)c5F)CC4)cn3c2)cn1 [Example 29, 2,3,5-trifluoro-4-hydroxy-N-({(1r,4r)-4-[6-(1-methyl-1H-pyrazol-4-yl)imidazo[1,2-a]pyridin-2-yl]cyclohexyl}methyl)benzamide] |
| 180 nM | O=C(NC[C@H]1CC[C@H](n2cc3ccc(-c4csc(C5CC5)n4)cc3n2)CC1)c1cc(F)c(O)c(F)c1 [Example 85, N-({(1r,4r)-4-[6-(2-cyclopropyl-1,3-thiazol-4-yl)-2H-indazol-2-yl]cyclohexyl}methyl)-3,5-difluoro-4-hydroxybenzamide] |
| 190 nM | O=C(NC[C@H]1CC[C@H](n2cc3cc(Cl)ccc3n2)CC1)c1cc(F)c(O)c(F)c1F [Example 26, N-{[(1r,4r)-4-(5-chloro-2H-indazol-2-yl)cyclohexyl]methyl}-2,3,5-trifluoro-4-hydroxybenzamide] |
| 81 nM | O=C(NC[C@H]1CC[C@H](n2cc3ccc(-c4cnoc4)cc3n2)CC1)c1cc(F)c(O)c(F)c1 [Example 111, 3,5-difluoro-4-hydroxy-N-({(1r,4r)-4-[6-(1,2-oxazol-4-yl)-2H-indazol-2-yl]cyclohexyl}methyl) benzamide] |
